Measured values: PMC3226499, “Environmental Impact on Vascular Development Predicted by High-Throughput Screening” (Environmental Health Perspectives, 2011)
Where two headings read alike, the source gives them in different places.

What was measured:
[1] = test system: six prioritized vascular targets (VEGFR2, TIE2, CCL2, PAI-1, CXCL10, uPAR); assay: Vascular bioactivity score (VBS): weighted sum of activity across 23 ToxCast assays; design: species or system human; conditions: for predicted vascular disruption from VBS rank: among all 311 compounds tested
CXCL10 = assay: BioMAP protein readout: CXCL10 up-regulation; assay type: cell-based, human
From the text: (§1) Source data. […] Assays measured direct interactions between chemicals and molecular targets (receptors, enzymes), as well as downstream effects on reporter gene activity or cellular consequences. […] The perturbation scores are a method of aggregating assays into groups and providing a higher-level view of chemical activity across important signaling pathways.
(§2) Identifying pVDCs. Six assay targets emerged as most relevant to embryonic blood vessel formation based on biological plausibility and prevalence in the VasculoDB literature. These targets have been previously identified, based on murine knockout models or significant associations between biomarker data and adverse pregnancy effects, as critical to proper embryonic blood vessel formation or maternal–fetal placental circulation. […]

CCL2 = assay: BioMAP protein readout: CCL2 down-regulation; assay type: cell-based, human
From the text: as §1
(§3) Identifying pVDCs. Six assay targets emerged as most relevant to embryonic blood vessel formation based on biological plausibility and prevalence in the VasculoDB literature. These targets have been previously identified, based on murine knockout models or significant associations between biomarker data and adverse pregnancy effects, as critical to proper embryonic blood vessel formation or maternal–fetal placental circulation. In order of descending influence (with corresponding references highlighting their importance to vascular development), these were down-regulation of the receptor tyrosine kinase (RTK) VEGFR2 ([Drake et al. 2007]); inhibition of the enzymatic activity of TIE2, an angiogenic RTK ([Patan 1998]); down-regulation of the proangiogenic chemokine CCL2 ([Keeley et al. 2008]); perturbation of the plasminogen-activating system (PAS) controlling extracellular matrix breakdown via up- or down-regulation of plasminogen activator inhibitor type 1 (PAI-1/SERPINE1) ([Behzadian et al. 2003]); up-regulation of the proinflammatory antiangiogenic chemokine CXCL10 ([Romagnani et al. 2001]); and perturbation of the PAS via up- or down-regulation of urokinase-type plasminogen activator receptor (uPAR/PLAUR) ([D’Alessio and Blasi 2009]).
(§4) As predicted, thalidomide and 5HPP-33 were active across most of the pVDC signature assay targets. […] 5HPP-33 also had effects on uPAR in the endothelial cell system at 10 µM. […] Both compounds, however, fell above the mean VBS cutoff and would be classified as pVDCs based on in vitro activity for vascular targets identified by the ToxCast data and chemicals. […] Thus, our findings with reference compounds known to be antiangiogenic support the contention that VBS is an effective metric for vascular disruption.

TIE2 = TIE2 (Homo sapiens, UniProt Q02763); assay: TIE2 cell-free biochemical assay
TIE2, sequence (Q02763 23-1124, species assumed): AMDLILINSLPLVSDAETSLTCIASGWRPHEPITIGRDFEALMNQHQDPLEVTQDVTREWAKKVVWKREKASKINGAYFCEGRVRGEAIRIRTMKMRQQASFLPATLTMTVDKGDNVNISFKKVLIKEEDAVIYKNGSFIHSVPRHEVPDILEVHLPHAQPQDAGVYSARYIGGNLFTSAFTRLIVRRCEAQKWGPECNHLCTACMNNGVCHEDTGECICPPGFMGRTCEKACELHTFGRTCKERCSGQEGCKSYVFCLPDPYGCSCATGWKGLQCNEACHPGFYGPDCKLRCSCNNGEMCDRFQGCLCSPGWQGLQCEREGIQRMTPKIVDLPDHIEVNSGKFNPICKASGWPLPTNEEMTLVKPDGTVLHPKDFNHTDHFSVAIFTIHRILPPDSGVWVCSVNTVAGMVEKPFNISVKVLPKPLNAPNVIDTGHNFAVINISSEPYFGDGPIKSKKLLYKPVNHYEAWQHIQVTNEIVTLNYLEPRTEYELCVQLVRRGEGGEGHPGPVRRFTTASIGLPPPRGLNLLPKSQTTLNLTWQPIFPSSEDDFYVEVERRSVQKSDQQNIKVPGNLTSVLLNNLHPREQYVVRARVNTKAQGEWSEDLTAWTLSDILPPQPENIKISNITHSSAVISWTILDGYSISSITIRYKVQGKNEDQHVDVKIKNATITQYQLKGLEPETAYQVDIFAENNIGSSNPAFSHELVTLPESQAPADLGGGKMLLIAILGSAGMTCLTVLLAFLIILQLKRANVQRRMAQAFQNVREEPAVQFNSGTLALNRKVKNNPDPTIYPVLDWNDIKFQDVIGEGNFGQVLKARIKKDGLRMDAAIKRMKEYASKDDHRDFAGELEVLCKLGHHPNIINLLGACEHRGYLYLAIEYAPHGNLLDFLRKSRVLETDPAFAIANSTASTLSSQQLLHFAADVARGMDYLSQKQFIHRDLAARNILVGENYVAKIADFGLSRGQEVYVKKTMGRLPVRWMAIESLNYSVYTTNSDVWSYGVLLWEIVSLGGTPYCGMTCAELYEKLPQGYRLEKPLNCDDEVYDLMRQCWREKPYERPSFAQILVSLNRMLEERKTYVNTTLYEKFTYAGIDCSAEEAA
From the text: (§5) The chemical library was run against these assays, as was a repeat of the TIE2 assay from the original data series (Table 2).

[2] = test system: human umbilical vein endothelial cell; design: method as in Noguchi et al. 2005; conditions: ref Noguchi et al. 2005; cited from earlier work
PAI-1 = assay: BioMAP protein readout: PAI-1 up- and down-regulation; assay type: cell-based, human; conditions: for PAI-1 up- and down-regulation LEC: lowest effective concentration
From the text: as §1, §3, §4

uPAR = assay: BioMAP protein readout: uPAR up- and down-regulation; assay type: cell-based, human; conditions: for uPAR up- and down-regulation LEC: lowest effective concentration
From the text: as §1, §3, §4

VEGFR2 [3] = assay: BioMAP protein readout: VEGFR2 down-regulation; assay type: cell-based, human; conditions: lowest effective concentration
From the text: as §1, §2

rat [4] = conditions: cited from earlier work
mouse = conditions: cited from earlier work
rat [5] = conditions: in vivo; cited from earlier work
rat/rabbit = conditions: in vivo; cited from earlier work
various species = conditions: cited from earlier work
EphB2 = target: T1, EphB2 (Homo sapiens, UniProt P29323); assay: EphB2 biochemical assay; conditions: read-out: EphB2 AC50
T1 sequence (P29323 569-986 isoform P29323-2 limits assumed): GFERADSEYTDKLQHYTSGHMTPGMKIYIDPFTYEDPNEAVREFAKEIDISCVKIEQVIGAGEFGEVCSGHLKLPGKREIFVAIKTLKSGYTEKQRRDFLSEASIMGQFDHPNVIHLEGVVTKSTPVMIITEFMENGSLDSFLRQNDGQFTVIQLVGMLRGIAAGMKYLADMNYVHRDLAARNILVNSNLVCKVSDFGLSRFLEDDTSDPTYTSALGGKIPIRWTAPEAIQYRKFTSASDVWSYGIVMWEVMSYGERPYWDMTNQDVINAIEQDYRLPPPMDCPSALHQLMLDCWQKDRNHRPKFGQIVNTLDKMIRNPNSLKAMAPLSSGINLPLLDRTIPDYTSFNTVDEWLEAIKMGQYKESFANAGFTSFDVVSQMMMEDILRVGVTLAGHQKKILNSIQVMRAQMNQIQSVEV

VEGFR1 = VEGFR1 (Homo sapiens, UniProt P17948); assay: VEGFR1 biochemical assay; conditions: read-out: VEGFR1 AC50
From the text: as §5

PTEN = PTEN (Homo sapiens, UniProt P60484); assay: PTEN biochemical assay; conditions: read-out: PTEN AC50
PTEN, sequence (P60484 whole entry, species assumed): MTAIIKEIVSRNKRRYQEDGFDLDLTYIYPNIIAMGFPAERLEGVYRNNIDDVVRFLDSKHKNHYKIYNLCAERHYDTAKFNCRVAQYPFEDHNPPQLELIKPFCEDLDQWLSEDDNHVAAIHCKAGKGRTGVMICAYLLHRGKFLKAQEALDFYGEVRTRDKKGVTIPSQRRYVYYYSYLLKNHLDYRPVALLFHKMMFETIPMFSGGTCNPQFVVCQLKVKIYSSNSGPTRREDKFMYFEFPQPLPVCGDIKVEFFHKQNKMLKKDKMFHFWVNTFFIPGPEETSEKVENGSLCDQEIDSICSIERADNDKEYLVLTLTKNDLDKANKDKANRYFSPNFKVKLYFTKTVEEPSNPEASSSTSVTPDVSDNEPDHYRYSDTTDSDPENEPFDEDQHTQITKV

VEGFR3 = VEGFR3 (Homo sapiens, UniProt P35916); assay: VEGFR3 biochemical assay; conditions: read-out: VEGFR3 AC50
VEGFR3, sequence (P35916 25-1363, species assumed): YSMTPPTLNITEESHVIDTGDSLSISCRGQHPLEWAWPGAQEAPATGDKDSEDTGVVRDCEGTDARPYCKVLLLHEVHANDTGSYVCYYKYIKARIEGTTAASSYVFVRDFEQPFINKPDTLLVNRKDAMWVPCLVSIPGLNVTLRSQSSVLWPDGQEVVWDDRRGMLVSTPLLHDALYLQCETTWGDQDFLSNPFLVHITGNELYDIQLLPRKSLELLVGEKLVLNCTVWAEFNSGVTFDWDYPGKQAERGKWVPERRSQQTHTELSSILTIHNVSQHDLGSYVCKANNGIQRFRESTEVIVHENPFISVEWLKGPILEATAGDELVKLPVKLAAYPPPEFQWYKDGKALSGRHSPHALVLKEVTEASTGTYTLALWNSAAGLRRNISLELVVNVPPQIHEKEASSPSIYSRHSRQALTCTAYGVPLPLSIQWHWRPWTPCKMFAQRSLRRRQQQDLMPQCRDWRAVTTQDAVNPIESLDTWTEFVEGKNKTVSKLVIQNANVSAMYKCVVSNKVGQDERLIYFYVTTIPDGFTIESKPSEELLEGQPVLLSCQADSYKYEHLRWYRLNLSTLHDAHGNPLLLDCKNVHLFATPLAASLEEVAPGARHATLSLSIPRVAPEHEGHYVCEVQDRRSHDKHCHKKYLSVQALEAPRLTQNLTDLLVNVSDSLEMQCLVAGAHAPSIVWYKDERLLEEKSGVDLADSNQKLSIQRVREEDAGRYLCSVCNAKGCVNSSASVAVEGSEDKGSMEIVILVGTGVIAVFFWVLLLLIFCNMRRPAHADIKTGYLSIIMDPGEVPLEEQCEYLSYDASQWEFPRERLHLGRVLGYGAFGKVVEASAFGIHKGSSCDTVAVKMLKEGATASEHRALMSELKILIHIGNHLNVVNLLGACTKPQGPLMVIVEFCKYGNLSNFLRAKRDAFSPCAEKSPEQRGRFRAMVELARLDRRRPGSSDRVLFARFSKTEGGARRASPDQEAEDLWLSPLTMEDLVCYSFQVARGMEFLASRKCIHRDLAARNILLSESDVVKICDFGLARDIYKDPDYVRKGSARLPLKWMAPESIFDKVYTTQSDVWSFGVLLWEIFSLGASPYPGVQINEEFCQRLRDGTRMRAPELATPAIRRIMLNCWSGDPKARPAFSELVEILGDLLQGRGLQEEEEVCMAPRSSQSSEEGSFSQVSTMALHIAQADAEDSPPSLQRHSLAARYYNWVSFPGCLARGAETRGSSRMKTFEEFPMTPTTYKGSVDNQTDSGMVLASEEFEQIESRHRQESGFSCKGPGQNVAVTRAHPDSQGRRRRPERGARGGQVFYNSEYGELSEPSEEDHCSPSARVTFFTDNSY

VEGFR2 [6] = target: VEGFR2 (Homo sapiens, UniProt P35968); assay: VEGFR2 biochemical assay; conditions: read-out: VEGFR2 AC50; biochemical
PI3Ka = PI3Ka (Homo sapiens, UniProt P42336); assay: PI3Ka biochemical assay
PI3Ka, sequence (P42336 whole entry): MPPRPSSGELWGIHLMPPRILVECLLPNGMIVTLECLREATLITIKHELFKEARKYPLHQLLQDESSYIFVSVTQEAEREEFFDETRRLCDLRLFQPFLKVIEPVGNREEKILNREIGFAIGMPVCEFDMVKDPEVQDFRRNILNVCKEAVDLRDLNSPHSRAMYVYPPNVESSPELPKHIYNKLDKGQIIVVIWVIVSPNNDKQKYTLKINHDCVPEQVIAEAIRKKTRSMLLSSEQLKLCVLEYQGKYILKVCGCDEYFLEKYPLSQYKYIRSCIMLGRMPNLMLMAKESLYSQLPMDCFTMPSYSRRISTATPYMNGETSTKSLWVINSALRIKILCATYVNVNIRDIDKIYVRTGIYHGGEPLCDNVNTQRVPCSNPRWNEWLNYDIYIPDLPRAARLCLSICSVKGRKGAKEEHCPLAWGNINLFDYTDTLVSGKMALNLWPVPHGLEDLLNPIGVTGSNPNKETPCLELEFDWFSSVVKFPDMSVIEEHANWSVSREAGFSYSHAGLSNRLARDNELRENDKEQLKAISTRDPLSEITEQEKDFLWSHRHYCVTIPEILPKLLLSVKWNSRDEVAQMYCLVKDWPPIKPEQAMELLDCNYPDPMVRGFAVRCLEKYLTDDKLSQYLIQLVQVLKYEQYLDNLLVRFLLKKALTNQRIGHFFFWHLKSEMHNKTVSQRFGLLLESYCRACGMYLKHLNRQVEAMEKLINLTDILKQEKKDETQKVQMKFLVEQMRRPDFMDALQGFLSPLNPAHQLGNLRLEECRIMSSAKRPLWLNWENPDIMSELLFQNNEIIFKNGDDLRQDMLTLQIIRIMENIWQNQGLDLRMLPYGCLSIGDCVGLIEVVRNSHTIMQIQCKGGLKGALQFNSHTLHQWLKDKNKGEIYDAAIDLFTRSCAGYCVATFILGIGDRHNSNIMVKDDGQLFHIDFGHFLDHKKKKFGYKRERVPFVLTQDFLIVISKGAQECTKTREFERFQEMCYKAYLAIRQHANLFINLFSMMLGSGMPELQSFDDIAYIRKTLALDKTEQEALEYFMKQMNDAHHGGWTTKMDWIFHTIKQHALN
PI3Ka, sequence (P27986 whole entry partner): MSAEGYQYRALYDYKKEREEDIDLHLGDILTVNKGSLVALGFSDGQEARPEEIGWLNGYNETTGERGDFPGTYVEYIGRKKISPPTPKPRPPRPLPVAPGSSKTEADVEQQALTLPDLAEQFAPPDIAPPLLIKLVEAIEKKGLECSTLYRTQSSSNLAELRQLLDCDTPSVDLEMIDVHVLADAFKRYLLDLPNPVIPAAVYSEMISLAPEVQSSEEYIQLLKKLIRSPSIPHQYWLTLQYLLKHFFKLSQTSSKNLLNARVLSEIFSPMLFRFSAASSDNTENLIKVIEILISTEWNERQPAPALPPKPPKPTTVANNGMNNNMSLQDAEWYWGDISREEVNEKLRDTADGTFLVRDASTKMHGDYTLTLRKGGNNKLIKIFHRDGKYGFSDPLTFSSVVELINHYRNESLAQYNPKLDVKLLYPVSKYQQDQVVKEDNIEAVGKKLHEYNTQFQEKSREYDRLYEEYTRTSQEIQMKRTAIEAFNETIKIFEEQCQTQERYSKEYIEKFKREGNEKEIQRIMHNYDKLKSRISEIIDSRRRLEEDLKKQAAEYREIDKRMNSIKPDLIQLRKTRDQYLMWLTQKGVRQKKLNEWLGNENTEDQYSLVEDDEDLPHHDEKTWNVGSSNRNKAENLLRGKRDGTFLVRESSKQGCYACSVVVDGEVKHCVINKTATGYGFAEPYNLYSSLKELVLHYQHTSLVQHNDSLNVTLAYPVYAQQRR

[7] = test system: placental vascular remodeling; conditions: rats; correlated with decreased expression of TIE2 mRNA; ref Ishimura et al. 2009; cited from earlier work
murine pregnancy = conditions: administered early or late in murine pregnancy, respectively; ref Rutland et al. 2005; cited from earlier work
[8] = test system: VEGF expression and VEGFR2 phosphorylation; design: method as in Joussen et al. 2001; Satchi-Fainaro et al. 2005; conditions: ocular vasculature; ref Joussen et al. 2001; Satchi-Fainaro et al. 2005; cited from earlier work
[9] = summed activity across 23 assays, 6 assay targets, reference antiangiogenic compounds
[10] = coculture of peripheral blood mononuclear cells and endothelial cells
[11] = ToxRefDB end points, ref U.S. EPA 2010b
[12] = species and reference printed with each result
[13] = read-out: TIE2 AC50, repeat of the TIE2 assay from the original data series

For CC(C)c1cccc(C(C)C)c1N1C(=O)c2ccc(O)cc2C1=O [5HPP-33, 5-hydroxy-2-(2,6-diisopropylphenyl)-1H-isoindole-1,3-dione], the “predicted vascular disruption from VBS rank” value [1] was “second highest VBS”, the VBS [1, 9] was 6.61 and the “effect on CXCL10 signal assay” value (CXCL10) was “Neither compound affected”. For the same molecule, the “CCL2 down-regulation LEC” value (CCL2; [10]) was 0.625 µM, the “CCL2 down-regulation LEC” value (CCL2; lowest effective concentration) was 0.625 µM and the AC50 (TIE2) was > 50 µM. The “AC50 in the TIE2 assay (in words)” value (TIE2) was “Neither compound affected the CXCL10 signal assay or produced an AC50 in the TIE2 assay”, the “inhibition of tube formation” value [2] was ~ 60% and the “PAI-1 down-regulation LEC” value (PAI-1; both fibroblasts and bronchial epithelial cells) was 20 µM. For the same molecule, the “PAI-1 up- and down-regulation LEC” value (PAI-1) was 20 µM, the “uPAR up-regulation, effective concentration” value (uPAR; bronchial epithelial cells) was 1.25 µM and the “effects on uPAR, effective concentration” value (uPAR; endothelial cell system) was 10 µM. For the same molecule, the “uPAR up- and down-regulation LEC” value (uPAR) was 1.25 µM and the “VEGFR2 down-regulation LEC” value (VEGFR2 [3]) was 20 µM.
For CC(C)N1C(=O)c2ccccc2NS1(=O)=O [Bentazone], the “RAT Multigenerational” value (rat [4]; [11]) is listed as “Kidney; Liver”.
For N#Cc1nn(-c2c(Cl)cc(C(F)(F)F)cc2Cl)c(N)c1[S+]([O-])C(F)(F)F (stereo not shown) [Fipronil], the “MOUSE Chronic” value (mouse; mouse, in vivo) is given as “LiverHypertrophy; LiverNec rosis; LiverProli ferativeLes ions; Liver_ AnyLes ion, PreneoplasticL esion”, the “RAT Chronic” value (rat [5]) is given as “KidneyNephropath y; Kidney_ AnyLesion; ThyroidGland_ AnyLesion, PreneoplasticL esion, Neoplasti cLesion; ThyroidProliferativeLesions; ThyroidTumors; Tumorigen” and the “RAT Multigenerational” value (rat [4]; rat, in vivo) is given as “Epididymis; Fertili ty; LitterSize; LiveBir thPND1; Liver; Mating; Ovary; Thyroid; ViabilityPND4”. For the same molecule, the “RAT/RABBIT Developmental” value (rat/rabbit) was “No effe ct recorded” and the “VTKB Results (peer-reviewed in vivo studies)” value (from here on “VTKB Results”) (various species; in vivo) was “Developmental Neurotoxi city: Zebrafish (Stehr e t al. 2006)”.
In the case of C=CCOC(Cn1ccnc1)c1ccc(Cl)cc1Cl (stereo not shown) [Imazalil], the “VTKB Results” value (various species; [12]) is given as “mammalian developmental toxicity”.
Molecule S=C([S-])NCCNC(=S)[S-].[Mn+2] [Maneb] has a VBS ([1]; ToxCast chemicals of Table 2) of 4.69, an AC50 (EphB2) of 23 µM and an AC50 (VEGFR1) of 4.1 µM. It also gave an AC50 (PTEN) of 0.9 µM, an AC50 (TIE2; [13]) of 8.08 µM and an AC50 (VEGFR3) of 12 µM. For the same molecule, the AC50 (VEGFR2 [6]) was 31 µM.
For O=S(=O)(O)C(F)(F)C(F)(F)C(F)(F)C(F)(F)C(F)(F)C(F)(F)C(F)(F)C(F)(F)F [Perfluorooctanesulfonic acid], the VBS ([1]; ToxCast chemicals of Table 2) was 3.48, the AC50 (VEGFR1) was 8.2 µM and the AC50 (PTEN) was 17 µM. For the same molecule, the AC50 (TIE2; [13]) was 4.43 µM, the “PI3Ka AC50” value (PI3Ka) was 6.5 µM and the AC50 (VEGFR3) was 8 µM. The AC50 (VEGFR2 [6]) was 50 µM.
In the case of O=C(O)C(F)(F)C(F)(F)C(F)(F)C(F)(F)C(F)(F)C(F)(F)C(F)(F)F [Perfluorooctanoic acid], the VBS ([1]; ToxCast chemicals of Table 2) is listed as 3.04, the AC50 (TIE2) is listed as 31.9 µM and the “VTKB Results” value (various species; [12]) is listed as “mammalian developmental toxicity”.
For Clc1cc2c(cc1Cl)Oc1cc(Cl)c(Cl)cc1O2 [TCDD, 2,3,7,8-tetrachlorodibenzo-p-dioxin], the placental vascular remodeling [7] is listed as “suppressed”.
In the case of CO[C@@H]1[C@H](OC(=O)NC(=O)CCl)CC[C@]2(CO2)[C@H]1[C@@]1(C)O[C@@H]1CC=C(C)C [TNP-470, O-[chloroacetyl-carbamoyl]fumagillol], the pregnancy outcome (murine pregnancy) is given as “spontaneous resorption and intrauterine growth restriction” and the “effect on VEGF expression and VEGFR2 phosphorylation” value [8] is given as “significant decrease”.
In the case of CCc1ccc(C(=O)NN(C(=O)c2cc(C)cc(C)c2)C(C)(C)C)cc1 [Tebufenozide], the “MOUSE Chronic” value (mouse; [11]) is listed as “Spleen_ AnyLesion”.
In the case of O=C1CCC(N2C(=O)c3ccccc3C2=O)C(=O)N1 (stereo not shown) [Thalidomide], the “predicted vascular disruption from VBS rank” value [1] is reported as “moderate vascular disruptor”, the VBS [1, 9] is reported as 1.76 and the “effect on CXCL10 signal assay” value (CXCL10) is reported as “Neither compound affected”. For the same molecule, the “CCL2 down-regulation LEC” value (CCL2; [10]) was 0.625 µM, the “CCL2 down-regulation LEC” value (CCL2; lowest effective concentration) was 0.625 µM and the AC50 (TIE2) was > 50 µM. The “AC50 in the TIE2 assay (in words)” value (TIE2) was “Neither compound affected the CXCL10 signal assay or produced an AC50 in the TIE2 assay”, the “inhibition of tube formation” value [2] was ~ 30% and the “PAI-1 up-regulation, effective concentration” value (PAI-1; fibroblasts) was 40 µM. For the same molecule, the “PAI-1 up- and down-regulation LEC” value (PAI-1) was 40 µM, the “uPAR up-regulation, effective concentration” value (uPAR; endothelial cells) was 2.5 µM and the “uPAR up- and down-regulation LEC” value (uPAR) was 2.5 µM.
In the case of CCC(C)(NC(=O)c1cc(Cl)c(C)c(Cl)c1)C(=O)CCl (stereo not shown) [Zoxamide], the “MOUSE Chronic” value (mouse; mouse, in vivo) is listed as “LungTumors; Lung_ AnyLesion, PreneoplasticL esion, Neoplasti cLesion; Tumorigen”, the “RAT Chronic” value (rat [5]) is listed as “No effe ct re corded” and the “RAT Multigenerational” value (rat [4]; rat, in vivo) is listed as “No effe ct recorded”. For the same molecule, the “RAT/RABBIT Developmental” value (rat/rabbit) was “No effe ct recorded”.
With Mancozeb the VBS ([1]; ToxCast chemicals of Table 2) was 3.00, the AC50 (EphB2) was 21 µM and the AC50 (VEGFR1) was 19 µM. For the same molecule, the AC50 (PTEN) was 0.23 µM, the AC50 (TIE2; [13]) was 10.4 µM and the “PI3Ka AC50” value (PI3Ka) was 20 µM. The AC50 (VEGFR3) was 1.3 µM and the AC50 (VEGFR2 [6]) was 5.9 µM.
With Metiram-zinc the VBS ([1]; ToxCast chemicals of Table 2) was 4.35, the AC50 (VEGFR1) was 6.6 µM and the AC50 (PTEN) was 12 µM. For the same molecule, the AC50 (TIE2; [13]) was 15 µM, the “PI3Ka AC50” value (PI3Ka) was 29 µM and the AC50 (VEGFR3) was 22 µM. For the same molecule, the AC50 (VEGFR2 [6]) was 41 µM.
